Assay results from patent US8017125B2, “Copolymers for suppression of autoimmune diseases, and methods of use” (President and Fellows of Harvard College, priority 2001, dated 2011).

Key:
HLA-DR-2 molecules = molecular target: T1, HLA-DR-2 molecules (Homo sapiens, UniProt P01903+P01911); experiment: Competitive binding of biotinylated MBP 86-100 to HLA-DR-2 molecules; conditions: biotinylated MBP 86-100 0.13 μM, 40 hr at 37° C.
T1 construct: Recombinant water-soluble HLA-DR-2 molecules were incubated with biotinylated MBP 86-100; Soluble HLA-DR-2 molecules were expressed in Drosophila S2 cells; made in house; host or cells: Drosophila S2 cells
Description: Protein expression and purification. Soluble HLA-DR-2 molecules were expressed in Drosophila S2 cells and purified as described (Kalandadze, A. et al. 1996. J. Biol. Chem. 271:20156-20162). Cells were grown at 26° C. in roller bottles in ExCell 401 medium (JRH Biosciences, Lenexa, Kans.) supplemented with 0-5% fetal bovine serum (Sigma Chemicals, St. Louis, Mo.). Cells were harvested 4-5 days after induction by 1 mM CuSO4. Supernatant from harvested cells was sequentially passed through Protein A, Protein G and Protein A-LB3.1 columns, followed by elution of the bound HLA-DR with 50 mM 3-[cyclohexylamino]-1-propanesulfonic acid (CAPS), pH 11.5, and neutralized with 200 mM phosphate (pH 6.0). Proteins were concentrated on a Centriprep 10 membrane (Amicon, Beverly, Mass.).
(A). Solutions. The solutions used in this assay are the following: binding buffer is 20 mM 2-[N-morpholino]ethanesulfonic acid (MES), 140 mM NaCl, 0.05% NaN3, pH 5.0, unless otherwise specified; PBS is 150 mM sodium chloride, 7.5 mM sodium phosphate, dibasic, 2.5 mM sodium phosphate, monobasic, pH 7.2; TBS is 137 mM sodium chloride, 25 mM Tris pH 8.0, 2.7 mM potassium chloride; TTBS is TBS plus 0.05% Tween-20. (B). […] Bound peptide-biotin was detected using streptavidin-conjugated alkaline phosphatase, as follows. […] Absorbance at 410 nm was monitored by a microplate reader (model MR4000; Dynatech, Chantilly, Va.).

[1] = tested on: Hy1B clone (MBP 84-102-specific TCR transfectant); experiment: Antigen presentation assay, Hy1B T cell clone; type: cell-based; conditions: MGAR APC, MBP 85-99 12.5 μM (FIG. 1C)
Excerpt: (§1) Antigen presentation assays.

[2] = tested on: EAE induced by WSCH in SJL/J mice; experiment: Suppression of EAE induced by WSCH; type: in vivo; conditions: for Incidence (mice with clinical signs of EAE / total immunized mice): SJL/J mice coinjected s.c. with 500 μg WSCH and 500 μg copolymer, observed 40 days
Description: (§2) Induction and suppression of EAE. […] Mice were scored daily for clinical signs of EAE on a scale 1-5, according to the severity of disease symptoms as previously described (Santambrogio, L. et al. 1993. J. Immunol. 151: 1116). For determination of suppression of EAE, each copolymer (500 μg/mouse) was mixed and injected with the encephalitogenic emulsion as described above.
To find out whether VEAK and FEAK random copolymers affected the clinical course of EAE in SJL/J mice, a number of in vivo experiments were performed. The protocol for disease induction was subcutaneous injection to co-immunize with both WSCH (500 μg) and each copolymer (500 μg), similar to the protocol of previous studies of suppression of EAE by Cop1 (Teitelbaum, D. et al. 1996. J. Neuroimmunol. 64:209-217). Following disease induction, mice were observed daily for 40 days for appearance of typical clinical signs of EAE (Table 1).

[3] = tested on: EAE induced by MBP 85-99 in humanized mice carrying HLA DR-2 and TCR transgenes; experiment: Suppression of EAE induced by MBP 85-99 in humanized mice; type: in vivo; conditions: for Clinical score (severity of symptoms): 50 days
Excerpt: Mouse strains. SJL/J (H-2^s) mice (8-12 weeks of age) were purchased from Jackson Laboratories (Bar Harbor, Me.) and were maintained in the animal facility at Harvard University according to the Guidelines of the Committee on Animals of Harvard University and the Committee on Care and Use of Laboratory Animal Resources, National Research Counsel (Department of Health and Human Services Publication 85-23, revised 1987).
Experimental animals were humanized mice carrying transgenes HLA DR-2 (DRA* 0101 and DRB1* 1501) and TCR from MS patient […], which is a V(D)J rearrangement of TCRα and TCRβ, amplified from clone Ob.1A12. Mice in each group were injected with MBP 85-99 (SEQ ID NO: 2) subcutaneously to induce EAE. […] Clinical symptoms were monitored over a course of 50 days on days indicated.

[4] = tested on: 2E12 T cell clone (MBP 84-102-specific hybridoma from HLA-DR-2-transgenic mice); experiment: Antigen presentation assay, 2E12 T cell clone; type: cell-based, mouse; conditions: L466 APC, MBP 85-99 4 μM (FIG. 1A)
Excerpt: as §1

[5] = tested on: H-2s-restricted PLP 139-151-specific T cell hybridoma hPLP/c4; conditions: SJL/J splenocytes, PLP 139-151 24 μM, copolymer 28 μM (FIG. 2C)
[6] = tested on: EAE induced by PLP 139-151 in SJL/J mice; experiment: Suppression of EAE induced by PLP 139-151 peptide; type: in vivo; conditions: for Maximum mean score: clinical scale 1-5; for Incidence (mice with clinical signs of EAE / total immunized mice): Example 10: SJL/J mice co-injected with 50 μg PLP 139-151 and 500 μg copolymer, observed 70 days
Description: as §2
To find out whether random copolymers provided herein might affect development of chronic-relapsing EAE, mice were injected subcutaneously with 50 μg of PLP 139-151 (SEQ ID NO: 4; the encephalitogenic epitope in the SJL/J strain) alone, or with 50 μg of PLP 139-151 (SEQ ID NO: 4) and 500 μg of the copolymer. Mice were examined on a daily basis for 90 days after the induction of the disease.
In vivo experiments were carried out to determine whether the Y- and F-containing 50-mer random copolymers would affect the clinical course of EAE in SJL/J mice. As in Examples above, the protocol for co-immunization was subcutaneous injection of SJL/J mice with, in this example, the encephalitogenic epitope PLP 139-151 (SEQ ID NO: 4; 50 μg) and a copolymer preparation (500 μg). Following disease induction, mice were observed daily for appearance of typical signs of EAE, during a period of 70 days.

MS patients = conditions: cited from earlier work
[7] = tested on: H-2s-restricted PLP 139-151-specific T cell hybridoma hPLP/1; experiment: Antigen presentation assay, hPLP/1 hybridoma; type: cell-based, mouse; conditions: SJL/J splenocytes, PLP 139-151 24 μM, copolymer 28 μM (FIG. 2B)
Excerpt: as §1

[8] = SJL/J mice, 500 μg WSCH + 500 μg copolymer
[9] = Example 10: 50 μg PLP 139-151 + 500 μg copolymer
[10] = Example 10: 50 μg PLP 139-151 + 500 μg copolymer, listed as Copaxone®

## ENPVVHFFKNIVTPR [MBP 85-99]
HLA-DR-2 molecules
  Inhibition of binding of biotinylated MBP 86-100 to HLA-DR-2 molecules: inhibited most efficiently

## Glatiramer acetate [Copaxone ®]
[1]
  Inhibition of the Hy1B clone: best inhibitor
[2]
  Incidence (mice with clinical signs of EAE / total immunized mice): 1/14
[2]; listed as Copaxone®
  Incidence (mice with clinical signs of EAE / total immunized mice): One out of fourteen
[2]; [8]
  Mean day of onset: 20.0 days
  Percent disease: 7%
  Percent mortality: 0%
[2]; SJL/J mice, 500 μg WSCH + 500 μg copolymer, clinical scale 1-5
  Maximum mean score: 3.0
[2]; SJL/J mice, 500 μg WSCH + 500 μg copolymer, listed as Copaxone®
  Mean day of onset: 20 days
[2]; co-immunization, 500 μg copolymer
  Effect on course of EAE induced by WSCH (in words): suppressed EAE
[3]; co-immunized
  Number of time points with symptoms: nine
[3]; co-immunized on day 0 with 500 μg copolymer and 50 μg MBP 85-99
  Clinical score (severity of symptoms): 2 to 3
[3]; pre-immunized
  Number of time points with symptoms: 14 time points
  Stable level of symptoms (severity): greater than 1
[3]; pre-immunized two days prior to EAE induction
  Clinical score (severity of symptoms): greater than 3
HLA-DR-2 molecules
  Inhibition of binding of biotinylated MBP 86-100 to HLA-DR-2 molecules: inhibited most efficiently
[4]
  Inhibition of proliferation of the 2E12 T cell clone: efficient
[5]
  Inhibition of hPLP/c4 hybridoma: best inhibited
[6]; Example 6
  Day of first attack: 26 days
  Day of peak of first attack: 34 days
  Mean maximal score: 1.25
[6]; Example 6: 50 μg PLP 139-151 + 500 μg copolymer, 90 days
  Mortality: 12%
[6]; Example 6: 50 μg PLP 139-151 + 500 μg copolymer, observed 90 days
  Mice with clinical signs of EAE out of group: two out of eight
[6]; [9]
  Mean day of onset: 22.7 ± 7.1 days
  Percent disease: 75%
  Percent mortality: 6%
  Maximum mean score: 2.6 ± 1.6
[6]; [10]
  Maximum mean score: 2.6
  Mean day of onset: 22 days
[6]
  Incidence (mice with clinical signs of EAE / total immunized mice): 12/16
[6]; listed as Copaxone®
  Incidence (mice with clinical signs of EAE / total immunized mice): 12 of 16
MS patients
  Reduction of frequency of relapse: about 30%
MS patients; wide use
  Toxicity: little or no toxicity
[7]
  Inhibition of proliferation of hPLP/1 hybridoma: best inhibited
